In patent US10672502B2, “Methods for determining protein structure using a surface-selective nonlinear optical technique” (Biodesy, Inc., priority 2015, dated 2020):
Like-named read-outs stand apart in the source and are kept apart here.

Tested on: dihydrofolate reductase (DHFR)
Conditions: 1 uM TMP
Description: Immediately before applying DOPC/DGS NTA (Ni) lipids, clean microscope slides with Piranha wash for 20 minutes. Rinse 3× with diH2O in a slide staining vessel. Dry slides with compressed Nitrogen. Assemble SHG wells by attaching adhesive gaskets to Piranha-cleaned slides (i.e., 16 wells per slide containing 10-20 μl volume). Use an assembly jig to align gaskets, carefully lay slide into jig and press firmly. Dilute DOPC/DGS NTA (Ni) lipid prep 1:1 with PBS or TBS buffers. 100 mM NaCl is required to reduce hydrostatic charge of the glass slide and enable the supported lipid bilayer (SLB) to form. Pipet 10-20 μL of diluted DOPC/DGS NTA (Ni) lipid into the wells of the slide and incubate for 5 minutes at room temperature. Wash the wells by submersing the slide in buffer bath (PBS or TBS) and agitating with a 200 μL pipettor taking care not to introduce air into the wells at any time. Exchange the entire volume of buffer in the bath with fresh buffer and repeat the washing step 2 more times. Add a 1:1 volume of 100 mM NiCl2 solution to all wells and incubate for 10 minutes at room temperature. Wash the wells by submersing the slide in buffer bath (PBS or TBS) and agitating with a 200 μL pipettor. Exchange the entire volume of buffer in bath with fresh buffer and repeat the washing step 2 more times. […]

**Q.** How did the “decrease in baseline signal (SHG % change, Izzz)” value (cysteine-labeled DHFR mutant tethered to Ni/NTA supported lipid bilayer via His tag at the C-terminus) turn out when `COc1cc(Cc2cnc(N)nc2N)cc(OC)c1OC` [TMP, trimethoprim] was run?
**A.** approximately 90%

**Q.** And the “decrease in baseline signal (SHG % change, Izzz)” value (cysteine-labeled DHFR mutant tethered to Ni/NTA supported lipid bilayer via His tag at the N-terminus, FIG. 14A)?
**A.** roughly 70%
